Measurements published in patent publication US20230159989A1, “MULTIPLEXED FLUORESCENCE IN SITU HYBRIDIZATION METHOD CAPABLE OF RAPID DETECTION OF BILLIONS OF TARGETS” (Kanvas Biosciences, Inc., priority 2021, published 2023).

Test system: carbapenem-resistant K. pneumoniae
Assay: HiPR-FISH chip antimicrobial susceptibility / MIC by growth imaging at several meropenem concentrations
Format: cell-based
Conditions: Klebsiella pneumoniae, several hours growth on a HiPR-FISH chip, in agreement with Clinical and Laboratory Standards Institute criteria, read-out: meropenem concentration beyond which the strain still grows (* denotes MIC)

Q: `C[C@@H](O)[C@H]1C(=O)N2C(C(=O)O)=C(S[C@@H]3CN[C@H](C(=O)N(C)C)C3)[C@H](C)[C@H]12` [meropenem] was tested. Which MIC did it give?
A: The MIC was > 2 µg/mL.
